Experimental data as given in PMC4619319, “A potent anti-inflammatory peptide from the salivary glands of horsefly” (Parasites & Vectors, 2015).

Key:
[1] = test system: iNOS transcription; experiment: LPS-stimulated iNOS mRNA transcription in peritoneal macrophages (qPCR); assay type: cell-based, mouse; conditions: 100 ng/mL LPS, 6 h
Procedure: qPCR was performed using SYBR green master mix (Takara, Japan) on a Realplex Mastercycler real-time PCR system (Eppendorf, Germany) according to the manufacturer’s instruction. The gene transcription levels were normalized to GAPDH or β-actinas as illustrated in figure legends and calculated by ΔΔCt method. The accuracy of qPCR results were checked by melting curve analysis. qPCR primers were listed in Additional file 1: Table S1.
Cells were incubated with peptides (0, 5, 10, and 20 μg/mL) in the presence or absence of LPS (100 ng/mL, from Escherichia coli 0111:B4, Sigma-Aldrich, USA). After 6-h incubation, cells in one plate were washed twice with ice-cold PBS and lysed by Trizol reagent (Life Tech, USA) for total RNA extraction. PrimeScript® Reverse Transcriptase Kit (Takara, Japan) was used to synthesize cDNA for qPCR to examine the transcription levels of inducible nitric oxide synthase (iNOS), which is necessary for NO production. After 24-h incubation, culture medium of each wells of another plate was harvested for nitrite detection, which indirectly reflected the NO production. Nitrite accumulation levels were determined by NO detection kit (Beyotime, China) following the kit instruction.

[2] = test system: TNF-α production; experiment: LPS-stimulated TNF-α production in peritoneal macrophages (ELISA); assay type: cell-based, mouse; conditions: 20 μg/mL peptide, 100 ng/mL LPS, 6 h
Procedure: Cells were incubated with peptides (0, 5, 10, and 20 μg/mL) with or without 100 ng/mL LPS (from E. coli 0111:B4, Sigma-Aldrich, USA) for 6 h. After treatment, culture medium was collected for TNF-α, IL-1β and IL-6 quantification using enzyme-linked immunosorbent assay (ELISA) kits (Dakewei, China). Cells were washed with ice-cold PBS and lysed by Trizol reagent (Life Tech, USA). Total RNA was extracted for cDNA synthesis to quantify TNF-α, IL-1β and IL-6 transcription levels by qPCR as described in qPCR section.

[3] = test system: P-p38; experiment: Western blot, LPS-induced P-p38 in peritoneal macrophages; assay type: cell-based, mouse; conditions: 20 μg/mL peptide, 100 ng/mL LPS, 30 min, band density ratio to β-actin
Procedure: (§1) Cells were treated with different concentrations of cecropin-TY1 (0, 5, 10, and 20 μg/mL) in the presence or absence of 100 ng/mL LPS (from E. coli 0111:B4, Sigma-Aldrich, USA). After 30-min incubation, cells were washed twice with ice-cold PBS and lysed with RIPA lysis buffer (Beyotime, China) on ice for 30 min according to our previous method. Protein concentration was quantified by BCA Protein Assay Kit (Thermo, Germany). About 40 μg protein was separated on a 10 % SDS-PAGE gel and transferred to a polyvinylidene difluoride membrane. The membrane was blocked by incubating with 5 % BSA (BD, USA) dissolved in Tris-buffered solution Tween-20 (TBST, 2.42 g/L Trisbase, 8 g/L NaCl, 0.1 % Tween 20, pH 7.6) for 2 h at room temperature. The membrane was then incubated with primary antibodies against ERK, phospho-ERK, p38, phospho-p38, JNK, phospho-JNK, phospho-IκBα, NF-κB p65 and phospho-NF-κB p65 (1:2000, Cell Signaling Technology, USA) and GAPDH/β-actin (1:5000, Santa Cruz Biotechnology, USA) overnight at 4 °C, respectively. After incubation, the immunoblot was washed three times with TBST for 5 min each time, and incubated with secondary antibody (1:5000, Cell Signaling Technology, USA) at room temperature for 1 h. Signals were measured by enhanced chemiluminescence kit in a dark room after washing three times with TBST for 10 min each time (TIANGEN, China).

[4] = test system: P-p65; experiment: Western blot, LPS-induced P-p65 in peritoneal macrophages; assay type: cell-based, mouse; conditions: 20 μg/mL peptide, 100 ng/mL LPS, 30 min, band density ratio to β-actin
Procedure: as §1

[5] = Circular dichroism, secondary structural components; assay type: physicochemical; conditions: CD, 25 °C, average of three scans
Procedure: CD spectra were collected on a Jasco-810 spectropolarimeter (Jasco, Tokyo, Japan) with a 1-mm path-length cell at 25 °C and 0.2-nm intervals from 190 to 260 nm. Cecropin-TY1 was dissolved in H2O, TFE/water solution, SDS/water solution and LPS/water solution at the concentration of 0.2 mg/mL. The data from three scans were averaged and smoothed using the Jasco-810 software for each spectrum. CD data were expressed as the mean residue ellipticity (θ) in deg.cm^2.dmol^−1.

[6] = LPS 50 ng/mL in water, peptide 0.2 mg/mL
[7] = LPS 100 ng/mL in water, peptide 0.2 mg/mL
[8] = LPS 200 ng/mL in water, peptide 0.2 mg/mL
[9] = LPS 400 ng/mL in water, peptide 0.2 mg/mL
[10] = SDS 5 mM in water, peptide 0.2 mg/mL
[11] = SDS 10 mM in water, peptide 0.2 mg/mL
[12] = SDS 20 mM in water, peptide 0.2 mg/mL
[13] = SDS 40 mM in water, peptide 0.2 mg/mL

GWLKKIGKKIERVGQNVRNAAISTLPIAQGAAGVAGALN-NH2 [cecropin-TY1, cecropin antimicrobial peptide from salivary glands of horsefly Tabanus yao, 39 residues, C-terminally amidated, synthesized]
attenuation of LPS-activated iNOS transcription ([1]; 5 μg/mL peptide): 58.8%
attenuation of LPS-activated iNOS transcription ([1]; 10 μg/mL peptide): 68.7%
attenuation of LPS-activated iNOS transcription ([1]; 20 μg/mL peptide): 84.2%
reduction of LPS-induced TNF-α production [2]: 72.1%
inhibition of LPS-induced P-p38 expression [3]: 46.4%
inhibition of LPS-induced P-p65 expression [4]: 55.9%
Beta (%) ([5]; H2O, peptide 0.2 mg/mL): 0.0%
Helix (%) ([5]; H2O, peptide 0.2 mg/mL): 0.0%
Random (%) ([5]; H2O, peptide 0.2 mg/mL): 71.1%
Turn (%) ([5]; H2O, peptide 0.2 mg/mL): 28.9%
Beta (%) [5, 6]: 32.4%
Helix (%) [5, 6]: 0.0%
Random (%) [5, 6]: 55.2%
Turn (%) [5, 6]: 12.4%
Beta (%) [5, 7]: 46.6%
Helix (%) [5, 7]: 2.9%
Random (%) [5, 7]: 47.4%
Turn (%) [5, 7]: 3.1%
Beta (%) [5, 8]: 44.5%
Helix (%) [5, 8]: 12.7%
Random (%) [5, 8]: 41.1%
Turn (%) [5, 8]: 1.7%
Beta (%) [5, 9]: 47.8%
Helix (%) [5, 9]: 14.8%
Random (%) [5, 9]: 37.2%
Turn (%) [5, 9]: 0.1%
Beta (%) [5, 10]: 17.5%
Helix (%) [5, 10]: 45.3%
Random (%) [5, 10]: 37.2%
Turn (%) [5, 10]: 0.0%
Beta (%) [5, 11]: 22.7%
Helix (%) [5, 11]: 41.2%
Random (%) [5, 11]: 36.1%
Turn (%) [5, 11]: 0.0%
Beta (%) [5, 12]: 13.4%
Helix (%) [5, 12]: 46.6%
Random (%) [5, 12]: 40.0%
Turn (%) [5, 12]: 0.0%
Beta (%) [5, 13]: 7.4%
Helix (%) [5, 13]: 54.4%
Random (%) [5, 13]: 38.2%
Turn (%) [5, 13]: 0.0%
Beta (%) ([5]; TFE/H2O 3:7, peptide 0.2 mg/mL): 28.7%
Helix (%) ([5]; TFE/H2O 3:7, peptide 0.2 mg/mL): 28.4%
Random (%) ([5]; TFE/H2O 3:7, peptide 0.2 mg/mL): 42.8%
Turn (%) ([5]; TFE/H2O 3:7, peptide 0.2 mg/mL): 0.0%
Beta (%) ([5]; TFE/H2O 5:5, peptide 0.2 mg/mL): 22.4%
Helix (%) ([5]; TFE/H2O 5:5, peptide 0.2 mg/mL): 36.9%
Random (%) ([5]; TFE/H2O 5:5, peptide 0.2 mg/mL): 40.7%
Turn (%) ([5]; TFE/H2O 5:5, peptide 0.2 mg/mL): 0.0%
Beta (%) ([5]; TFE/H2O 7:3, peptide 0.2 mg/mL): 22.4%
Helix (%) ([5]; TFE/H2O 7:3, peptide 0.2 mg/mL): 37.8%
Random (%) ([5]; TFE/H2O 7:3, peptide 0.2 mg/mL): 39.9%
Turn (%) ([5]; TFE/H2O 7:3, peptide 0.2 mg/mL): 0.0%
Beta (%) ([5]; TFE/H2O 9:1, peptide 0.2 mg/mL): 15.0%
Helix (%) ([5]; TFE/H2O 9:1, peptide 0.2 mg/mL): 45.1%
Random (%) ([5]; TFE/H2O 9:1, peptide 0.2 mg/mL): 39.9%
Turn (%) ([5]; TFE/H2O 9:1, peptide 0.2 mg/mL): 0.0%
